Assay results published in ChEMBL document CHEMBL1268951, “Polyamide amino acids trimers as TAR RNA ligands and anti-HIV agents” (Bioorg Med Chem, 2010).
Active and inactive are the calls of the source. No cut-off for these calls is given here. Where a SMILES comes first, the peptide text is derived from it.

assay: Inhibition of HIV1 Tat/TAR interaction at 1 to 400 uM by FRET based competition assay

inhibition	Structure (SMILES)
Active	NCCCC[C@H](NC(=O)CN(CCNC(=O)[C@@H](N)Cc1ccccc1)C(=O)[C@H](CCCCNC(=O)OCc1ccccc1)NC(=O)OCc1ccccc1)C(=O)O
Active	C[C@H](N)C(=O)NCCN(CC(=O)N[C@@H](Cc1ccccc1)C(=O)O)C(=O)[C@H](Cc1ccccc1)NC(=O)OCc1ccccc1
Active	N[C@@H](Cc1ccccc1)C(=O)NCCN(CC(=O)N[C@@H](Cc1ccccc1)C(=O)O)C(=O)[C@H](Cc1ccccc1)NC(=O)OCc1ccccc1
Active	NCCCC[C@H](N)C(=O)NCCN(CC(=O)N[C@@H](Cc1ccccc1)C(=O)O)C(=O)[C@H](Cc1ccccc1)NC(=O)OCc1ccccc1
Active	N=C(N)NCCC[C@H](N)C(=O)NCCN(CC(=O)N[C@@H](Cc1ccccc1)C(=O)O)C(=O)[C@H](Cc1ccccc1)NC(=O)OCc1ccccc1
Active	C[C@H](N)C(=O)NCCN(CC(=O)N[C@@H](CCCCN)C(=O)O)C(=O)[C@H](CCCCNC(=O)OCc1ccccc1)NC(=O)OCc1ccccc1
Active	NCCCC[C@H](NC(=O)CN(CCNC(=O)[C@@H](N)CCCCN)C(=O)[C@H](CCCCNC(=O)OCc1ccccc1)NC(=O)OCc1ccccc1)C(=O)O
Active	N=C(N)NCCC[C@H](N)C(=O)NCCN(CC(=O)N[C@@H](CCCCN)C(=O)O)C(=O)[C@H](CCCCNC(=O)OCc1ccccc1)NC(=O)OCc1ccccc1
Active	C[C@H](N)C(=O)NCCN(CC(=O)N[C@@H](CCCNC(=N)N)C(=O)O)C(=O)[C@H](CCCN(C(=N)NC(=O)OCc1ccccc1)C(=O)OCc1ccccc1)NC(=O)OCc1ccccc1
Active	N=C(N)NCCC[C@H](NC(=O)CN(CCNC(=O)[C@@H](N)Cc1ccccc1)C(=O)[C@H](CCCN(C(=N)NC(=O)OCc1ccccc1)C(=O)OCc1ccccc1)NC(=O)OCc1ccccc1)C(=O)O
Active	N=C(N)NCCC[C@H](NC(=O)CN(CCNC(=O)[C@@H](N)CCCCN)C(=O)[C@H](CCCN(C(=N)NC(=O)OCc1ccccc1)C(=O)OCc1ccccc1)NC(=O)OCc1ccccc1)C(=O)O
Active	N=C(N)NCCC[C@H](NC(=O)CN(CCNC(=O)[C@@H](N)CCCNC(=N)N)C(=O)[C@H](CCCN(C(=N)NC(=O)OCc1ccccc1)C(=O)OCc1ccccc1)NC(=O)OCc1ccccc1)C(=O)O
Active	C[C@H](N)C(=O)NCCN(CC(=O)N[C@@H](C)C(=O)O)C(=O)[C@H](C)NC(=O)OCc1ccccc1
Active	C[C@H](NC(=O)CN(CCNC(=O)[C@@H](N)Cc1ccccc1)C(=O)[C@H](C)NC(=O)OCc1ccccc1)C(=O)O
Active	C[C@H](NC(=O)CN(CCNC(=O)[C@@H](N)CCCCN)C(=O)[C@H](C)NC(=O)OCc1ccccc1)C(=O)O
Active	C[C@H](NC(=O)CN(CCNC(=O)[C@@H](N)CCCNC(=N)N)C(=O)[C@H](C)NC(=O)OCc1ccccc1)C(=O)O

inhibition	Structure (SMILES)
Active	C[C@H](NC(=O)[C@@H](N)CCCNC(=N)N)C(=O)N[C@@H](CCCCN)C(=O)O (H-Arg-Ala-Lys-OH)
Active	N=C(N)NCCC[C@H](NC(=O)[C@H](CCCNC(=N)N)NC(=O)[C@@H](N)CCCNC(=N)N)C(=O)O (H-Arg-Arg-Arg-OH)
Active	N=C(N)NCCC[C@H](NC(=O)[C@@H](N)CCCNC(=N)N)C(=O)N[C@@H](CCCCN)C(=O)O (H-Arg-Arg-Lys-OH)
Active	N=C(N)NCCC[C@H](NC(=O)[C@H](CCCCN)NC(=O)[C@@H](N)CCCNC(=N)N)C(=O)O (H-Arg-Lys-Arg-OH)
Active	N=C(N)NCCC[C@H](N)C(=O)N[C@@H](CCCCN)C(=O)N[C@@H](CCCCN)C(=O)O (H-Arg-Lys-Lys-OH)
Active	N=C(N)NCCC[C@H](NC(=O)[C@H](Cc1ccccc1)NC(=O)[C@@H](N)CCCNC(=N)N)C(=O)O (H-Arg-Phe-Arg-OH)
Active	N=C(N)NCCC[C@H](N)C(=O)N[C@@H](Cc1ccccc1)C(=O)N[C@@H](CCCCN)C(=O)O (H-Arg-Phe-Lys-OH)
Active	C[C@H](NC(=O)[C@H](C)NC(=O)[C@@H](N)CCCCN)C(=O)O (H-Lys-Ala-Ala-OH)
Active	C[C@H](NC(=O)[C@H](CCCCN)NC(=O)[C@@H](N)CCCCN)C(=O)O (H-Lys-Lys-Ala-OH)
Active	C[C@H](NC(=O)[C@@H](N)Cc1ccccc1)C(=O)N[C@@H](Cc1ccccc1)C(=O)O (H-Phe-Ala-Phe-OH)
Active	N=C(N)NCCC[C@H](NC(=O)[C@@H](N)Cc1ccccc1)C(=O)N[C@@H](CCCCN)C(=O)O (H-Phe-Arg-Lys-OH)
Active	N=C(N)NCCC[C@H](NC(=O)[C@@H](N)Cc1ccccc1)C(=O)N[C@@H](Cc1ccccc1)C(=O)O (H-Phe-Arg-Phe-OH)
Active	NCCCC[C@H](NC(=O)[C@H](CCCCN)NC(=O)[C@@H](N)Cc1ccccc1)C(=O)O (H-Phe-Lys-Lys-OH)
Active	NCCCC[C@H](NC(=O)[C@@H](N)Cc1ccccc1)C(=O)N[C@@H](Cc1ccccc1)C(=O)O (H-Phe-Lys-Phe-OH)
Active	NCCCC[C@H](NC(=O)[C@H](Cc1ccccc1)NC(=O)[C@@H](N)Cc1ccccc1)C(=O)O (H-Phe-Phe-Lys-OH)
Active	N[C@@H](Cc1ccccc1)C(=O)N[C@@H](Cc1ccccc1)C(=O)N[C@@H](Cc1ccccc1)C(=O)O (H-Phe-Phe-Phe-OH)

Structure (SMILES)	inhibition
C[C@H](NC(=O)[C@H](Cc1ccccc1)NC(=O)[C@@H](N)CCCCN)C(=O)O (H-Lys-Phe-Ala-OH)	Active
